Assay results published in patent publication US8809344B2, “Compounds, compositions, and methods for control of hepatitis C viral infections” (priority 2008, dated 2014).
pEC50: −log10 of the molar value. Where two headings read alike, the source gives them in different places.

What was measured:
[1] = test system: stable genotype 1b (Con1 strain) subgenomic replicon; test: EC50 in Clone VI cells, quantitative RT-PCR of HCV RNA; type: cell-based; settings: Hepatitis C virus, 72 hour
Method: Inhibition of HCV replication by compound AP0080978 (enantiomer 2 from Example 1) was also assayed by exposing cells harboring either HCV genotype 1a, HCV genotype 1b, HCV genotype 2a replicons. […] Final DMSO percentage was 1% in a total volume of 1 ml. After a 72 hour treatment period, total RNA was extracted, quantified via RiboGreen™ assay (Invitrogen-Molecular Probes, Eugene, Oreg., USA), and equivalent amounts of RNA were subjected to quantitative RT-PCR to quantify HCV RNA levels. […] For each replicate culture, HCV RNA levels were measured by blot hybridization and normalized to β-actin RNA levels. Cytotoxicity was measured using an established neutral red dye uptake assay (Korba and Gerin (1992) Antiviral Res 19:55; Okuse et al (2005) Antiviral Res 65: 23). […] Activity and toxicity against genotype 2a was evaluated in Huh7 cells harboring a stable hRluc-containing subgenomic genotype 2a replicon containing sequence from both J6 and JFH1 strains. […]
Additional compounds of formula (I) shown in FIG. 1 were also shown to inhibit HCV RNA replication. The effects of various compounds of formula (I) on HCV RNA replicon levels were determined by measuring HCV replicon RNA levels in cells treated with various concentrations of the compounds. […] Total RNA was extracted 72 hours later, and HCV and GAPDH RNA levels were quantified via quantitative RT-PCR. […]

[2] = test system: stable genotype 1b subgenomic replicon (Con1 strain); test: Clone II cells, HCV RNA by blot hybridization normalized to β-actin RNA; type: cell-based; settings: Hepatitis C virus, 72 h
Method: (§1) Inhibition of HCV replication by compound AP0080978 (enantiomer 2 from Example 1) was also assayed by exposing cells harboring either HCV genotype 1a, HCV genotype 1b, HCV genotype 2a replicons. […] Final DMSO percentage was 1% in a total volume of 1 ml. After a 72 hour treatment period, total RNA was extracted, quantified via RiboGreen™ assay (Invitrogen-Molecular Probes, Eugene, Oreg., USA), and equivalent amounts of RNA were subjected to quantitative RT-PCR to quantify HCV RNA levels. Activity against genotype 1b was re-confirmed using Clone II cells (U.S. Pat. No. 7,049,428) that contain a stable subgenomic replicon (Con1 strain) with a Arg 1164 Gly adaptive mutation that is distinct from the Ser 1179 Ile adaptive mutation present in Clone VI cells. In this assay, cells were seeded into 96-well plates and treated in quadruplicate with varying concentration of compounds for 72 hours. For each replicate culture, HCV RNA levels were measured by blot hybridization and normalized to β-actin RNA levels. Cytotoxicity was measured using an established neutral red dye uptake assay (Korba and Gerin (1992) Antiviral Res 19:55; Okuse et al (2005) Antiviral Res 65: 23). […] Activity and toxicity against genotype 2a was evaluated in Huh7 cells harboring a stable hRluc-containing subgenomic genotype 2a replicon containing sequence from both J6 and JFH1 strains. […]

[3] = test system: replicon RNA from 80978-resistant and control Clone A cells in Huh7b cells; test: Sensitivity of Huh7b cells electroporated with total RNA from resistant or control Clone A cells; type: cell-based, hepatitis C virus
Text: To determine whether resistance was replicon-associated, total RNA was extracted from 80978-resistant and control cells and re-introduced via electroporation into naïve Huh7b cells, the parental cell line of Clone A cells. Electroporated cells that harbored replicon were selected with Geneticin™, pooled, and assayed for sensitivity to 80978.

[4] = test system: subgenomic genotype 2a replicon (J6 and JFH1 strains); test: Genotype 2a hRluc replicon assay in Huh7 cells, Renilla luciferase readout; type: cell-based; settings: Hepatitis C virus, Huh-7, 48 h
Method: as §1

[5] = test system: genotype 1b (Con1 strain) replicon with silent mutation at amino acid 1771; test: Silent-mutation reporter replicon IVT RNA in Huh7.5 cells; type: cell-based; settings: Hepatitis C virus
Text: To identify nucleotide changes that confer resistance to 80978, replicon RNA was reverse transcribed and amplified from total RNA extracted from 80978-resistant and control Clone A cells. […] One silent mutation at amino acid 1771 was also observed. Each mutation was introduced independently into a stable genotype 1b (Con1 strain) subgenomic reporter replicon plasmid via site-directed mutagenesis. […] The sequence of the wild type NS4B encoding sequence is provided as SEQ ID NO:1, the sequence of the mutated NS4B nucleotide sequence encoding the F1809V mutation is provided as SEQ ID NO:3, and the sequence of the mutated NS4B nucleotide sequence encoding the F1809L mutation is provided as SEQ ID NO:5. The sequence of the wild type NS4B protein is provided as SEQ ID NO:2, the sequence of the mutated NS4B protein with the F1809V mutation is provided as SEQ ID NO:4, and the sequence of the mutated NS4B nucleotide sequence encoding the F1809L mutation is provided as SEQ ID NO:6. […] A differential response was observed between cells electroporated with different replicon RNAs.

Work on `O=C(NCc1cccs1)c1nn2c(c1Cl)N[C@H](c1ccco1)C[C@@H]2C(F)(F)F` (single isomer, unassigned) [Compound 80978] yielded a pEC50 ([1]; FIG. 2, compounds other than 80978 as racemates, read-out: EC50 for inhibition of HCV RNA replication) of 6.05, a pEC50 ([1]; Experiment 1, genotype 1b, RT-PCR, read-out: EC50) of 5.76 to 6.05 and a pEC50 [2] of 5.14. For the same molecule, the “sensitivity to 80978” value ([3]; Huh7b cells electroporated with total RNA from 80978-resistant cells) was “maintained resistance”, the “sensitivity to 80978” value ([3]; Huh7b cells electroporated with total RNA from control cells) was “sensitive” and the pEC50 [4] was < 4.60. The pEC50 [5] was 6.62.
